In article PMC11537999, “Identification of human pregnane X receptor antagonists utilizing a high-throughput screening platform” (Frontiers in Pharmacology, 2024):

System: CYP3A4 mRNA expression
Assay: CYP3A4 mRNA expression by qRT-PCR in HepaRG cells treated with compound alone
Assay type: cell-based, human
Conditions: 24 h, compound at its IC70 concentration, vs DMSO
Protocol: Fully differentiated NoSpin™ HepaRG™ cells (Lonza, Walkersville, Maryland) were seeded into 12-well collagen-coated plates (Corning) at a density of 8 × 10^5 cells/well using Williams’ E medium (ThermoFisher) supplemented with HepaRG™ thawing and plating medium supplement (Lonza), 25 U/mL penicillin, and 25 μg/mL streptomycin (Invitrogen). The cells were then placed into a 37°C and 5% CO2 incubator for 3 days including a media change before treatment. Cells were then treated with the vehicle control (final concentration of 0.1% DMSO), the positive controls, or test compounds for 24 h before harvesting.
Total RNA was extracted from the cell lysate using an RNeasy Mini kit (Qiagen) according to the manufacturer’s instructions. RNA was reverse transcribed to cDNA using a High-Capacity RNA-to-cDNA kit (Applied Biosystems). CYP3A4 and CYP2B6 mRNA expression were both measured and normalized to the glyceraldehyde-3-phosphate dehydrogenase (GAPDH) housekeeping gene. Real-time PCR was completed using a QuantStudio Real-Time PCR system (Applied Biosystems) with TaqMan probes (CYP3A4 Assay ID: Hs00604506_m1, CYP2B6 Assay ID: Hs04183483_g1, GAPDH Assay ID: Hs99999905_m1, ThermoFisher Scientific, Waltham, MA). Following amplification, induction values were calculated using the equation: Fold = 2^−ΔΔCt, where ΔCt represents the difference in number of cycles required to reach the Ct threshold between CYP3A4 or CYP2B6 and GAPDH, and ΔΔCt represents the relative change in these differences between the control (DMSO) and treatment groups. Experimental data are expressed as a mean of triplicate values ±SD. Statistical analysis was performed using one-way analysis of variance with post hoc Dunnett’s analysis. The statistical significance values were set at p < 0.05 (*), p < 0.01 (**), and p < 0.001 (***).
To overcome the previous screening limitations, we used this more physiologically relevant cell line, HepaRG cells, to run follow-up studies with the PXR antagonists identified from the primary screen which used immortalized cell lines without a metabolic component. Using HepaRG cells, the 20 potential PXR antagonists were treated for 24 h and harvested for mRNA (Supplementary Figure S1).
FIGURE 3 HepaRG cells were treated with the top 20 most promising PXR antagonists identified from the high-throughput screen. […] The concentrations for the test compounds were the IC70 values from the original NPACT screen. Real-time PCR was used to analyze the mRNA expression of CYP3A4. Each bar represents the mean ± SD in triplicate. *, p < 0.05; **, p < 0.01.

SMILES	inhibition of CYP3A4 mRNA expression (in words)
COc1cc(-c2cn(C3CCc4c(F)cccc4N(CC(F)(F)F)C3=O)nn2)ccc1-n1cnc(C)c1 (centres unmarked) [GSM2]	significantly inhibited CYP3A4 mRNA expression
CC(=O)O[C@H]1C[C@@]2(C)[C@@H](C[C@@H](O)[C@H]3[C@@]4(C)CC[C@@H](O)[C@@H](C)[C@@H]4CC[C@@]32C)/C1=C(\CCC=C(C)C)C(=O)O [fusidic acid]	significantly inhibited CYP3A4 mRNA expression
